Measured values: patent US6096338A, “Delivery systems for hydrophobic drugs” (R. P. Scherer Corporation, priority 1994, dated 2000)
≈ marks a conversion by molar mass, not a printed value. Where two headings read alike, the source gives them in different places. Each block holds one compound with its values, some of them ahead of it.

Columns and labels:
[1] = Aqueous solubility of hydrophobic drugs in simulated intestinal fluid with bile and lipolytic products; assay type: physicochemical; conditions: pH 6.5
Protocol: As stated above, the aqueous solubilities of hydrophobic drugs can be increased by incorporation into mixed micelles, formed by bile salts and lipolytic products of triglyceride oil digestion.
An aqueous medium was prepared to simulate the intestinal environment using the following components:
100 mls pH 6.5 Tris-maleate buffer solution containing:
The medium was prepared as described in the in vitro test procedure described above. To this simulated intestinal fluid a series of different components were added to evaluate the enhancement of the aqueous solubility of a range of hydrophobic drugs. The components which were added were:
Experiment (i) Nothing (control experiment)
15 mM crude ox gallbladder bile
15 mM crude ox gallbladder bile +
500 mg of medium chain lipolytic
products (137 mg capric acid, 98 mg
glyceryl monocaprate, 151 mg
caprylic acid and 114 mg glyceryl
500 mg of long chain lipolytic
products (307 mg oleic acid and
193 mg glyceryl monooleate). […]
Then 100 mg of drug, in powder form, was added to the reaction medium, the pH was adjusted to 6.5 and the medium was mixed for 21/2 hours. At this time a sample was taken from the vessel, filtered through a 0.2 micron filter and the quantity of drug in solution in the simulated intestinal fluid was determined by a specific HPLC method.

[2] = Aqueous solubility of progesterone in buffer, bile and lipolytic products; assay type: physicochemical; conditions: for solubility at 1 h / solubility at 2 h: pH 6.5, 37° C.; for solubility at 1 h: read-out: Progesterone solubility after 60 minutes; for solubility at 2 h: read-out: Progesterone solubility after 120 minutes
Protocol: The solubility of progesterone was determined as follows:
The following five aqueous media were each prepared at 37° C. in the pH-Stat reaction vessel. The pH of each solution was adjusted to exactly 6.50 by the addition of an appropriate volume of 1.0 molar sodium hydroxide solution. […]
pH 6.50 tris-maleate buffer solution (containing 5 mM calcium chloride and 150 mM sodium chloride) pH 6.50 tris-maleate buffer solution+15 mM ox bile pH 6.50 tris-maleate buffer solution+15 mM ox bile+0.5% hydrophilic surfactant (Cremophor RH40) pH 6.50 tris-maleate buffer solution+15 mM ox bile+medium chain lipolytic products viz 53% by weight of caprylic acid-monocaprylate (2:1 molar ratio) and 47% by weight of capric acid-monocaprate (2:1 molar ratio) […]
pH 6.50 tris maleate buffer solution+15 mM ox bile+0.5% long chain lipolytic products viz oleic acid and monoolein (2:1 molar ratio) The following procedures was performed in triplicate. 15 mls of each of the above aqueous media were added to approximately 20 mgs (excess) of progesterone in 21 ml glass vials. Each vial was whirlmixed and then maintained at 37° C. in an ultrasonic bath for 120 minutes. After 60 and 120 minutes, 3 ml of each solution were extracted for progesterone solubility determination by HPLC, using the following standard procedure:
Each sample is filtered through a 13 mm 0.2 μm PVDF syringe filter (supplied by Whatman®). The first 1.5 ml of filtrate is discarded. 0.8 ml of the remaining filtrate is combined with 0.8 ml of acetonitrile (the mobile phase) in an amber glass vial. The vial is then hermetically sealed and shaken by hand and then analysed.

Pancreatic lipase = experiment: In vitro lipolysis test (pH-stat titration) of fractionated coconut oil (FCO) with hydrophilic and lipophilic surfactants; assay type: biochemical; conditions: FCO with Cremophor RH40 and lipophilic surfactant; FIG. 2
Source text: In Vitro Test for Determining the Suitability of Hydrophilic and Lipophilic Surfactants
Pancreatic lipase in the presence of colipase catalyses the lipolysis (also termed hydrolysis or de-esterification) of emulsified oils, a process that results in the production of fatty acids. The rate of fatty acid generation, and thus a measure of the rate of lipolysis, can be followed via continuous titration with a pH-stat as described below.
The pH-stat should comprise, for example, a pH-meter, an autoburette and an autotitration unit. These instruments can be obtained from Radiometer A/S, Copenhagen, Denmark as product numbers PHM82, ABU80 and TTT80, respectively.
The reaction should be performed in a glass thermostatted vessel maintained at 37.5±0.5° C. This vessel should have an internal diameter of approximately 7.5 cm and a height of approximately 7.0 cm. During an experiment the reaction vessel should be placed beneath the titration assembly unit so that the tips of the pH-electrodes and the stirrer are all at least 1 cm beneath the liquid level. […]
At time=30 minutes, titrate the pH up to precisely 6.50 (e.g. using 1.0M NaOH using the autotitrator). Record the volume of titrant dispensed, then re-zero the titrant display reading on the autotitrator. […]

[3] = Buffer + 15 mM ox bile + 0.5% MCLPs

Buffer solubility [1]: below the detection limit of assay
SMILES: CC(C)(Sc1cc(C(C)(C)C)c(O)c(C(C)(C)C)c1)Sc1cc(C(C)(C)C)c(O)c(C(C)(C)C)c1 [Probucol, probucol]

Further increase in solubility with long chain lipolytic products ([2]; 0.5% long chain lipolytic products, vs bile salts): approximately 3 fold
Further increase in solubility with medium chain lipolytic products ([2]; 0.5% medium chain lipolytic products, vs bile salts): approximately 3 fold
solubility at 1 h ([2]; Buffer + 15 mM bile): 46.6 ± 0.47 µg/mL
solubility at 2 h ([2]; Buffer + 15 mM bile): 45.5 ± 1.08 µg/mL
solubility at 1 h ([2]; Buffer + 15 mM ox bile + 0.5% LCLPs): 153 ± 6.17 µg/mL
solubility at 1 h [2, 3]: 136 ± 11 µg/mL
solubility at 2 h [2, 3]: 142 ± 6.31 µg/mL
solubility at 1 h ([2]; aqueous buffer, Buffer alone): 10.1 ± 0.25 µg/mL (≈ 32.1 µM)
solubility at 2 h ([2]; aqueous buffer, Buffer alone): 9.47 ± 1.16 µg/mL (≈ 30.1 µM)
Increase in solubility in bile salts compared to buffer alone ([2]; bile salts vs buffer alone): approximately 4.5 fold
SMILES: CC(=O)[C@H]1CC[C@H]2[C@@H]3CCC4=CC(=O)CC[C@]4(C)[C@H]3CC[C@]12C [Progesterone, progesterone]

SMILES: CCCCCCCC/C=C\CCCCCCCC(=O)O [oleic acid]
Ability to overcome inhibitory effects of Cremophor RH40 on rate of FCO lipolysis (Pancreatic lipase): capable of overcoming the inhibitory effects
